Data taken from PubChem BioAssay AID248 (DTP/NCI, 2004).
Inconclusive results and toxic doses are left out. No stated cut-off is given here; in the data, active means T/C of 150% or more; inactive means T/C below 125%.

System: L1210 leukemia ip in BDF1 mice, survival T/C
Test: NCI In Vivo Anticancer Drug Screen. Data for tumor model L1210 Leukemia (intraperitoneal) in B6D2F1 (BDF1) mice
Conditions: endpoint: mean survival time, higher = longer survival
Summary of the method: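 Read-out is survival time, reported as the treated-group measurement over the vehicle-control measurement.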

[1] = dose: 100.0 mg/kg/injection, schedule: Q04DX002 (ip), vehicle: other
[2] = dose: 200.0 mg/kg/injection, schedule: Q04DX002 (ip), vehicle: other
[3] = dose: 100.0 mg/kg/injection, schedule: Q01DX009 (ip), vehicle: Klucel (hydroxypropylcellulose) (HPC)
[4] = dose: 100.0 mg/kg/injection, schedule: Q04DX003 (ip), vehicle: Klucel (hydroxypropylcellulose) (HPC)
[5] = dose: 200.0 mg/kg/injection, schedule: Q01DX009 (ip), vehicle: Klucel (hydroxypropylcellulose) (HPC)
[6] = dose: 200.0 mg/kg/injection, schedule: Q04DX003 (ip), vehicle: Klucel (hydroxypropylcellulose) (HPC)
[7] = dose: 100.0 mg/kg/injection, schedule: Q04DX002 (ip), vehicle: saline
[8] = dose: 200.0 mg/kg/injection, schedule: Q04DX002 (ip), vehicle: saline
[9] = dose: 400.0 mg/kg/injection, schedule: Q04DX002 (ip), vehicle: saline
[10] = dose: 100.0 mg/kg/injection, schedule: Q01DX001 (ip), vehicle: saline
[11] = dose: 200.0 mg/kg/injection, schedule: Q01DX001 (ip), vehicle: saline
[12] = dose: 100.0 mg/kg/injection, schedule: Q01DX009 (ip), vehicle: saline with Tween-80
[13] = dose: 200.0 mg/kg/injection, schedule: Q01DX009 (ip), vehicle: saline with Tween-80
[14] = dose: 400.0 mg/kg/injection, schedule: Q01DX009 (ip), vehicle: saline with Tween-80
[15] = dose: 50.0 mg/kg/injection, schedule: Q01DX009 (ip), vehicle: Klucel (hydroxypropylcellulose) (HPC)
[16] = dose: 400.0 mg/kg/injection, schedule: Q01DX001 (ip), vehicle: saline
[17] = dose: 50.0 mg/kg/injection, schedule: Q01DX009 (ip), vehicle: saline with Tween-80
[18] = dose: 75.0 mg/kg/injection, schedule: Q01DX009 (ip), vehicle: other
[19] = dose: 150.0 mg/kg/injection, schedule: Q01DX009 (ip), vehicle: other
[20] = dose: 300.0 mg/kg/injection, schedule: Q01DX009 (ip), vehicle: other

Measured: T/C

O=c1c(O)c(O)c1=O
inactive: dose: 75.0 mg/kg/injection, schedule: Q01DX001 (ip), vehicle: carboxymethylcellulose (CMC) 89 % of control | dose: 150.0 mg/kg/injection, schedule: Q01DX001 (ip), vehicle: carboxymethylcellulose (CMC) 98 % of control

c1nc2c(o1)CCCC2
inactive: dose: 50.0 mg/kg/injection, schedule: Q04DX002 (ip), vehicle: carboxymethylcellulose (CMC) 98 % of control | dose: 50.0 mg/kg/injection, schedule: Q04DX002 (ip), vehicle: other 97 % of control | dose: 100.0 mg/kg/injection, schedule: Q04DX002 (ip), vehicle: carboxymethylcellulose (CMC) 98 % of control | [1] 100 % of control | dose: 200.0 mg/kg/injection, schedule: Q04DX002 (ip), vehicle: carboxymethylcellulose (CMC) 95 % of control | [2] 93 % of control

O=C1OCCN1/N=C/c1ccc([N+](=O)[O-])o1
inactive: [3] 107 % of control | [4] 105 % of control | [5] 110 % of control | [6] 105 % of control | dose: 400.0 mg/kg/injection, schedule: Q01DX009 (ip), vehicle: Klucel (hydroxypropylcellulose) (HPC) 97 % of control | dose: 400.0 mg/kg/injection, schedule: Q04DX003 (ip), vehicle: Klucel (hydroxypropylcellulose) (HPC) 106 % of control

NC(=O)NC(=O)Nc1ccccc1
inactive: [7] 96 % of control | [8] 96 % of control | [9] 111 % of control

COc1cc2cc(C)[nH]c2cc1OC
inactive: dose: 50.0 mg/kg/injection, schedule: Q01DX001 (ip), vehicle: saline 101 % of control | [10] 95 % of control | [11] 98 % of control

OCCNc1ccc(I)cc1
inactive: [12] 90 % of control | [13] 92 % of control | [14] 87 % of control

Cc1ccccc1NC(=O)CI
inactive: dose: 12.5 mg/kg/injection, schedule: Q01DX009 (ip), vehicle: Klucel (hydroxypropylcellulose) (HPC) 97 % of control | dose: 25.0 mg/kg/injection, schedule: Q01DX009 (ip), vehicle: Klucel (hydroxypropylcellulose) (HPC) 103 % of control | [15] 101 % of control

CCN(CC)CCCC(C)Nc1cc(N)nc2nc(-c3ccccc3)c(-c3ccccc3)nc12 (stereo not drawn)
inactive: dose: 9.5 mg/kg/injection, schedule: Q01DX001 (ip), vehicle: other 89 % of control | dose: 38.0 mg/kg/injection, schedule: Q01DX001 (ip), vehicle: other 87 % of control | dose: 75.0 mg/kg/injection, schedule: Q01DX001 (ip), vehicle: other 96 % of control

CC(=O)OCC1OC(Sc2cccc3ccccc23)C(OC(C)=O)C(OC(C)=O)C1OC(C)=O (stereo not drawn)
inactive: [10] 104 % of control | [11] 93 % of control | [16] 98 % of control

CCN(C(=O)CCl)c1ccccc1C
inactive: [17] 91 % of control | [12] 100 % of control

CCOc1nc(=O)n(C2CCOC2=O)cc1F (stereo not drawn)
inactive: [18] 103 % of control | dose: 100.0 mg/kg/injection, schedule: Q04DX003 (ip), vehicle: saline 92 % of control | [19] 103 % of control | dose: 200.0 mg/kg/injection, schedule: Q04DX003 (ip), vehicle: saline 106 % of control | [20] 100 % of control | dose: 400.0 mg/kg/injection, schedule: Q04DX003 (ip), vehicle: saline 95 % of control

CCCC(C)C(=NC)Nc1ccc(Cl)c(Cl)c1 (stereo not drawn)
inactive: dose: 11.1 mg/kg/injection, schedule: Q01DX Z (ip), vehicle: methylcellulose (MC) 91 % of control | dose: 16.6 mg/kg/injection, schedule: Q01DX Z (ip), vehicle: methylcellulose (MC) 95 % of control

COc1cc2c(cc1OC)C(CCN1C(=O)CCC1=O)NCC2 (stereo not drawn)
inactive: [12] 92 % of control | [13] 98 % of control

CC[CH2][Pb]([CH2]CC)([CH2]CC)[O]C(=O)C1CCCCC1
inactive: dose: 1.5 mg/kg/injection, schedule: Q01DX009 (ip), vehicle: saline with Tween-80 100 % of control | dose: 1.5 mg/kg/injection, schedule: Q04DX003 (ip), vehicle: saline with Tween-80 106 % of control | dose: 3.0 mg/kg/injection, schedule: Q01DX009 (ip), vehicle: saline with Tween-80 100 % of control | dose: 3.0 mg/kg/injection, schedule: Q04DX003 (ip), vehicle: saline with Tween-80 116 % of control | dose: 6.0 mg/kg/injection, schedule: Q01DX009 (ip), vehicle: saline with Tween-80 104 % of control | dose: 6.0 mg/kg/injection, schedule: Q04DX003 (ip), vehicle: saline with Tween-80 104 % of control

ON=C1CCCCC1
inactive: [18] 95 % of control | [10] 88 % of control | [12] 96 % of control | [1] 111 % of control | dose: 100.0 mg/kg/injection, schedule: Q04DX002 (ip), vehicle: saline with Tween-80 97 % of control | [19] 105 % of control | [11] 96 % of control | [13] 94 % of control | [2] 97 % of control | dose: 200.0 mg/kg/injection, schedule: Q04DX002 (ip), vehicle: saline with Tween-80 94 % of control | [20] 94 % of control | [16] 93 % of control | [14] 91 % of control | dose: 400.0 mg/kg/injection, schedule: Q04DX002 (ip), vehicle: other 97 % of control | dose: 400.0 mg/kg/injection, schedule: Q04DX002 (ip), vehicle: saline with Tween-80 102 % of control

COC1OC(CO)C(O)C(OS(C)(=O)=O)C1OS(C)(=O)=O (stereo not drawn)
inactive: [7] 104 % of control | [8] 104 % of control | [9] 93 % of control

C#CC1(OCC(CCl)OC(N)=O)CCCCC1 (stereo not drawn)
inactive: dose: 25.0 mg/kg/injection, schedule: Q01DX009 (ip), vehicle: saline with Tween-80 105 % of control | dose: 25.0 mg/kg/injection, schedule: Q04DX003 (ip), vehicle: saline with Tween-80 105 % of control | [17] 105 % of control | dose: 50.0 mg/kg/injection, schedule: Q04DX003 (ip), vehicle: saline with Tween-80 95 % of control | [12] 102 % of control | dose: 100.0 mg/kg/injection, schedule: Q04DX003 (ip), vehicle: saline with Tween-80 101 % of control | [13] 105 % of control | dose: 200.0 mg/kg/injection, schedule: Q04DX003 (ip), vehicle: saline with Tween-80 100 % of control | [14] 97 % of control | dose: 400.0 mg/kg/injection, schedule: Q04DX003 (ip), vehicle: saline with Tween-80 86 % of control

Cc1c(Br)c(=O)n(-c2ccccc2)n1C
inactive: [15] 94 % of control | [3] 98 % of control | [4] 101 % of control | [5] 100 % of control | [6] 100 % of control
